Columns and labels:
[1] = cited from earlier work
[2] = test system: GLUT4; assay: Immunostaining / confocal microscopy of GLUT4 subcellular localization in MM.1S cells; format: cell-based, human; conditions: 3 μM 8-NH2-Ado, 5 hours, aggregation of GLUT4 within the trans-golgi network
Protocol: (§1) (A) Measurement of glucose consumed by MM.1S cells treated with 3 μM 8-NH2-Ado for 5 hours. Data are means±SEM (n=3). (B) MM.1S cells were treated for the indicated number of hours with 3 μM 8-NH2-Ado or not (C) prior to lysis and immunoblot analysis of GLUT1 and GLUT4 expression. (C) Immunostaining of GLUT1 and GLUT4 in MM.1S cells treated with 3 μM 8 NH2-Ado for 5 hours. Arrow indicates intracellular aggregation of GLUT4.
To explore mechanisms underlying the decrease in glucose consumption elicited by 8-NH2-Ado in the MM.1S cell line, we examined the regulation of glucose transporters that regulate the primary rate limiting step in glycolysis (Rodriguez-Enriquez, Marin-Hernandez et al. 2009). We examined expression and subcellular localization of GLUT1 and GLUT4, two highly expressed glucose transporters in B lymphocytes. Despite a 40% decline in glucose consumption rates within the first five hours of treatment (FIG. 1A), no substantial changes in GLUT1 or GLUT4 expression levels are observed at this time (FIG. 1B). The expression of both GLUT1 and 4 are diminished by 24 hours, potentially contributing to the further decline in glucose transport rates seen between 5 and 17 hours. Since the activity of these proteins depends upon insertion into the plasma membrane, we next evaluated subcellular distribution by immunofluorescence confocal microscopy (FIG. 1C). […]

[3] = test system: MM.1S cells; assay: Glucose consumption of MM.1S cells treated with 8-NH2-Ado; format: cell-based, human; conditions: 3 μM 8-NH2-Ado, within the first five hours of treatment
Protocol: as §1
Our laboratory has worked extensively on defining the mechanism of action of purine analogues 8-amino-adenosine (8-NH2-Ado) and 8-chloro-adenosine (Gandhi, Ayres et al. 2001; Krett, Davies et al. 2004; Ghias, Ma et al. 2005). In our recent publication (Shanmugam, McBrayer et al. 2009) we report that 8-NH2-Ado targets cellular metabolism by inducing a rapid decline in glucose consumption, the magnitude of which correlates with toxicity in various myeloma cell lines.
To explore mechanisms underlying the decrease in glucose consumption elicited by 8-NH2-Ado in the MM.1S cell line, we examined the regulation of glucose transporters that regulate the primary rate limiting step in glycolysis (Rodriguez-Enriquez, Marin-Hernandez et al. 2009). […] Since the activity of these proteins depends upon insertion into the plasma membrane, we next evaluated subcellular distribution by immunofluorescence confocal microscopy (FIG. 1C). […]

[4] = test system: U266 myeloma cells; assay: Doxorubicin cell death in U266 cells in 11 or 0.5 mM glucose medium (flow cytometry, DAPI staining); format: cell-based, human; conditions: 0.5 mM vs 11 mM glucose medium, 48 hours
Protocol: (A) Primary normal B lymphocytes and CD138+ cells isolated from an MM patient and L363 cells were cultured in medium containing 0 or 5 mM glucose for 48 (NBL, L363) or 72 (MM Patient) hours. Cell viability was determined by flow cytometric analysis of AnnexinV/DAPI staining and normalized to 5 mM samples. Data are means±SEM (n=2). (B) Indicated cells were cultured as in (A) with various concentrations of glucose for 72 hours. Viable cell quantities were determined by MTS assay and normalized to 5 mM samples. Data are means±SEM. (C) U266 myeloma cells were cultured in 11 or 0.5 mM glucose-containing medium for 48 hours in the presence of the indicated concentrations of doxorubicin. Cell death was determined by flow cytometric analysis of DAPI staining. Data are means±SEM. *p<0.05 **p<0.01.
Glucose Deprivation Attenuates Proliferation, Viability and Chemoresistance of Myeloma Cells. To independently ascertain the contribution of glucose in maintaining myeloma cell proliferation and survival we cultured L363 myeloma cells, normal B lymphocytes (NBL), and primary MM cells in medium containing either a physiological glucose concentration (5 mM) or medium devoid of glucose and assessed the impact on cellular viability (FIG. 2 A). Under these conditions, greater than 95% of L363 cells and 50% of the primary MM cells undergo apoptosis while the viability of normal cells is not impacted. […]

[5] = target: T1, GLUT4 (Rattus norvegicus, UniProt P19357); conditions: primary rat adipocytes (Murata, Hruz et al.); read-out: Ki, reversible non-competitive GLUT4 inhibition; cited from earlier work
T1 construct: host or cells: primary rat adipocytes
T1 sequence (P19357 1-509): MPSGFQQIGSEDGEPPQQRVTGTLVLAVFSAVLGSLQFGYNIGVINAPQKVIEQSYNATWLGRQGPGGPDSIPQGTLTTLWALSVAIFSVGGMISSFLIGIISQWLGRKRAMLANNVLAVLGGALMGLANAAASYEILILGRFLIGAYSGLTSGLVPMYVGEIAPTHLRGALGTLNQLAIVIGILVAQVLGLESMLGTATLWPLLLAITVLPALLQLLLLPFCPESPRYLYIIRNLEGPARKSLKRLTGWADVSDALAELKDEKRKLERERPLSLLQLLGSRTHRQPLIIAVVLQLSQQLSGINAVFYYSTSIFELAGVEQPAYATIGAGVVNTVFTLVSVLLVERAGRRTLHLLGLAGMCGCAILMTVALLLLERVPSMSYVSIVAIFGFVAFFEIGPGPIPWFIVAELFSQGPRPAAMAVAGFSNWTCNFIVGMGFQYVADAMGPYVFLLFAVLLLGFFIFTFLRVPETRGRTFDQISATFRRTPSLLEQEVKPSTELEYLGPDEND

[6] = epirubicin plus lonidamine vs epirubicin alone; did not reach statistical significance; cited from earlier work
[7] = test system: L363 cells; assay: Relative viable cell number by MTS assay with ritonavir, L363; format: cell-based, human
Protocol: (§2) (A) KMS11 and (B) L363 cells were plated in 5 mM glucose medium with ritonavir or DMSO (D) for 17 hours. Glucose consumption rates are normalized to untreated cells (not shown). (C) KMS11 and (D) L363 cells were treated with ritonavir or DMSO for 12 hours. Relative viable cell numbers were determined by MTS assay and normalized to untreated cells (not shown). (E) KMS11 and (F) L363 cells were treated with 20 μM ritonavir with or without 0.075 (KMS11) and 0.025 μM (L363) doxorubicin or the combination for 72 hrs and cellular viability assessed by AnnexinV/DAPI staining. (G) Stable KMS11 cell lines were generated expressing empty vector or GLUT1 and GLUT1 levels were assessed by immunoblot. Representative blot is shown. N.S. indicates non-specific band. (H) Stable cell lines from part G were treated with DMSO or ritonavir (Rit) for 5 hours and glucose consumption was assessed. (1) Cell proliferation was measured in the stable cell lines described in part G treated with ritonavir (Rit) or DMSO for 72 hours. A representative experiment is shown. (J) Cell proliferation rates from multiple experiments represented by part G are normalized to DMSO-treated cells. (K) Primary myeloma cells were treated with DMSO or ritonavir for 72 hours before AnnexinV/DAPI staining. Values are normalized to DMSO-treated samples (n=1 for each patient sample). Data are means±SEM with n≧3. *P<0.05 **P<0.01 ***P<0.005.

[8] = test system: KMS11 stable cell lines expressing GLUT1; assay: Glucose consumption in stable KMS11 cell lines expressing GLUT1 or control, treated with ritonavir; format: cell-based, human; conditions: KMS11 stable line expressing GLUT1, 5 hours
Protocol: as §2

[9] = test system: KMS11 cells; assay: Relative viable cell number by MTS assay with ritonavir, KMS11; format: cell-based, human
Protocol: as §2

[10] = test system: L363 cells; assay: Ritonavir with or without doxorubicin, viability by AnnexinV/DAPI staining, L363; format: cell-based, human; conditions: L363, 20 μM ritonavir with 0.025 μM doxorubicin, 72 hrs
Protocol: as §2

[11] = test system: primary myeloma cells; assay: Cytotoxicity of ritonavir towards primary myeloma cells (AnnexinV/DAPI staining); format: cell-based, human; conditions: 20 μM ritonavir, 72 hours
Protocol: as §2

[12] = test system: KMS11 stable cell lines expressing GLUT1; assay: Cell proliferation in stable KMS11 cell lines expressing GLUT1 or control, treated with ritonavir; format: cell-based, human; conditions: KMS11 stable line expressing GLUT1, 72 hours
Protocol: as §2

[13] = test system: KMS11 cells; assay: Glucose consumption rate with ritonavir, KMS11; format: cell-based, human; conditions: KMS11, 5 mM glucose medium, 17 hours
Protocol: as §2

[14] = test system: KMS11 cells; assay: Ritonavir with or without doxorubicin, viability by AnnexinV/DAPI staining, KMS11; format: cell-based, human; conditions: KMS11, 20 μM ritonavir with 0.075 μM doxorubicin, 72 hrs
Protocol: as §2

[15] = humans (Hsu, Granneman et al. 1997); cited from earlier work
[16] = test system: L363 cells; assay: Glucose consumption rate with ritonavir, L363; format: cell-based, human; conditions: L363, 5 mM glucose medium, 17 hours
Protocol: as §2

[17] = 2DG and docetaxel, evaluable pool of 18 patients

In the case of `O=CC[C@@H](O)[C@H](O)[C@H](O)CO` [2DG], the “adverse event noted in multiple patients” value ([1]; 2DG and docetaxel phase I trial) is given as “Grade 3 hyperglycemia”, the “cases of disease stabilization” value [1, 17] is given as “six” and the partial response [1, 17] is given as “one”.
In the case of `Nc1ncnc2c1nc(N)n2[C@@H]1O[C@H](CO)[C@@H](O)[C@H]1O` [8-NH2-Ado, 8-amino-adenosine], the “basal cell surface localization of GLUT4” value [2] is reported as “reduces this basal cell surface localization of GLUT4” and the “decline in glucose consumption rates” value [3] is reported as 40%.
In the case of `COc1cccc2c1C(=O)c1c(O)c3c(c(O)c1C2=O)C[C@@](O)(C(=O)CO)C[C@@H]3O[C@H]1C[C@H](N)[C@H](O)[C@H](C)O1` [doxorubicin], the “sensitivity to doxorubicin under glucose-limiting conditions” value [4] is reported as “significantly greater sensitivity”.
For `CC(C)(C)NC(=O)[C@@H]1CN(Cc2cccnc2)CCN1C[C@@H](O)C[C@@H](Cc1ccccc1)C(=O)N[C@H]1c2ccccc2C[C@H]1O` [indinavir], the Ki [5] is given as 15 µM.
In the case of `O=C(O)c1nn(Cc2ccc(Cl)cc2Cl)c2ccccc12` [lonidamine], the “increase in overall response rate” value [6] is given as 9%.
With `CC(C)c1nc(CN(C)C(=O)N[C@H](C(=O)N[C@@H](Cc2ccccc2)C[C@H](O)[C@H](Cc2ccccc2)NC(=O)OCc2cncs2)C(C)C)cs1` [ritonavir] the “proliferation (relative viable cell numbers, MTS)” value [7] was “dose-dependent abrogation”, the “effect of GLUT1 expression on ritonavir-induced glucose transport inhibition” value [8] was “completely mitigated” and the “proliferation (relative viable cell numbers, MTS)” value [9] was “dose-dependent abrogation”. For the same compound, the sensitization to doxorubicin [10] was “recapitulates the doxorubicin-sensitizing effects of glucose limitation”, the “cell death induction in patient samples” value [11] was “a range of cell death induction” and the “effect of GLUT1 expression on response to prolonged ritonavir treatment (proliferation)” value [12] was “robust resistance”. For the same compound, the “glucose transport (glucose consumption rate)” value [13] was “dose-dependent abrogation”, the sensitization to doxorubicin [14] was “recapitulates the doxorubicin-sensitizing effects of glucose limitation” and the “peak plasma level routinely achieved in humans” value [15] was ~20 µM. The “glucose transport (glucose consumption rate)” value [16] was “dose-dependent abrogation”.

Source: patent publication US9207243B2, “Use of GLUT4 inhibitors and DNA damaging agents for treating multiple myeloma” (Northwestern University, priority 2011, dated 2015)
